In ChEMBL document CHEMBL1687782, “High-resolution crystal structure of the subclass B3 metallo-beta-lactamase BJP-1: rational basis for substrate specificity and interaction with sulfonamides” (Antimicrob Agents Chemother, 2010):

Experiments:
Fluoribacter gormanii [1] = assay: Ratio of Kcat to Km for Fluoribacter gormanii 1K07 metallo-beta-lactamase FEZ-1
[2] = tested on: Stenotrophomonas maltophilia; assay: Ratio of Kcat to Km for Stenotrophomonas maltophilia 1SML metallo-beta-lactamase L1
[3] = tested on: Stenotrophomonas maltophilia; assay: Activity at Stenotrophomonas maltophilia 1SML metallo-beta-lactamase L1
Bradyrhizobium japonicum [4] = assay: Ratio of Kcat to Km for Bradyrhizobium japonicum metallo-beta-lactamase BJP-1
Bradyrhizobium japonicum [5] = assay: Activity at Bradyrhizobium japonicum metallo-beta-lactamase BJP-1
Fluoribacter gormanii [6] = assay: Activity at Fluoribacter gormanii 1K07 metallo-beta-lactamase FEZ-1

Row | Structure (SMILES) | kcat/Km (Fluoribacter gormanii [1]) | kcat/Km [2] | Km [3] [µM] | kcat/Km (Bradyrhizobium japonicum [4]) [×10⁴ /M/s] | Km (Bradyrhizobium japonicum [5]) [µM] | Km (Fluoribacter gormanii [6]) [µM]
1 | CCN1CCN(C(=O)N[C@@H](C(=O)N[C@@H]2C(=O)N3[C@@H]2SC(C)(C)[C@@H]3C(=O)O)c2ccccc2)C(=O)C1=O | 1.2 ×10⁴ /M/s | 7 ×10⁶ /M/s | 20 | 6.7 | 700 | 4200
2 | C[C@@H](O)[C@H]1C(=O)N2C(C(=O)O)=C(SCCNC=N)C[C@H]12 | 2 ×10⁵ /M/s | 7.3 ×10⁵ /M/s | 90 | 6 | 260 | > 1000
3 | CC1(C)S[C@@H]2[C@H](NC(=O)[C@H](N)c3ccccc3)C(=O)N2[C@H]1C(=O)O | 1.1 ×10⁴ /M/s | 4.4 ×10⁶ /M/s | 40 | 1.9 | 670 | > 5000
4 | CC1(C)S[C@@H]2[C@H](NC(=O)[C@H](C(=O)O)c3ccsc3)C(=O)N2[C@H]1C(=O)O | 1.3 ×10⁴ /M/s | 2.7 ×10⁶ /M/s | 140 | – | – | > 5000
